The values that follow come from patent publication US20110124674A1, “5/5-OR 5/6-MEMBERED CONDENSED RING CYCLOALKYLAMINE DERIVATIVE” (priority 2008, published 2011).

pIC50: −log10 of the molar value.

T1 sequence (Q99705 whole entry): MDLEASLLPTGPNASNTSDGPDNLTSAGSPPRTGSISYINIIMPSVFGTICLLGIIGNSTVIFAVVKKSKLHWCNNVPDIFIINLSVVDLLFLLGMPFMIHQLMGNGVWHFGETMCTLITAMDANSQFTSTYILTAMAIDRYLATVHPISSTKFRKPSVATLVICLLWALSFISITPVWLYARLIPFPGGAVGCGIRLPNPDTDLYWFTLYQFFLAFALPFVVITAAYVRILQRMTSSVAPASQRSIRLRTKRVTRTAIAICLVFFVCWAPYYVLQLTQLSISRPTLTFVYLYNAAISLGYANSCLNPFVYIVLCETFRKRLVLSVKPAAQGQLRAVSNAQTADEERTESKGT

The test addresses T1, human MCH-1R (Homo sapiens, UniProt Q99705).
T1 construct: expressed in transfected cells; host or cells: CHO-K1 (American Type Culture Collection), vector pEF/myc/cyto
The test is described as follows: MCH binding inhibition test ([125I]MCH binding to membranes of MCH-1R expressing CHO-K1 cells). Conditions: membranes of CHO-K1 cells expressing human MCH-1R; 50 pM [125I]MCH; 25° C., 1 hour; pH 7.4; read-out: IC50 (50% inhibition concentration of test compound to the specific [125I]MCH binding). The source says:
Pharmacological Test Example: MCH Binding Inhibition Test
A human MCH-1R encoding cDNA sequence [FEBS Letters, Vol. 398, 253 (1996); Biochimica et Biophisica Acta, Vol. 1401, 216 (1998)] was cloned to a plasmid vector pEF/myc/cyto (by Invitrogen Corporation). The obtained expression vector was transfected to host cells CHO-K1 (American Type Culture Collection) using Lipofectamine Plus Reagent (by Life Technology Inc.) to provide MCH-1R expression cells.
Membrane samples prepared from the MCH-1R expression cells were incubated with each test compound and 50 pM of [^125I]MCH (by NEN Co.), in an assay buffer (50 mM Tris buffer comprising 10 mM magnesium chloride, 2 mM ethylenediamine tetraacetate, 0.01% bacitracin and 0.2% bovine serum albumin; pH 7.4) at 25° C. for an hour, followed by filtration through a glass filter GF/C (by Wattman Co.). After washing the glass filter with 50 mM Tris buffer (pH 7.4) comprising 10 mM magnesium chloride, 2 mM ethylenediamine tetraacettic acid and 0.04% Tween-20, the radio activity on the glass filter was measured. The non-specific binding was measured in the presence of 1 μM human MCH, and the 50% inhibition concentration (IC50 value) of each test compound to the specific [^125I]MCH binding was determined.
Consider `C#CCn1cc(CN2CCC(NC(=O)c3cc(OC)c(C)c(OC)c3)CC2)c2ccccc21` [Example 2-10, 4-methyl-3,5-bis(methyloxy)-N-(1-{[1-(2-propyn-1-yl)-1H-indol-3-yl]methyl}-4-piperidinyl)benzamide], for which the pIC50 was 7.66. Turning to `COc1cc(C(=O)NC2CCN(Cc3cc4sccc4n3C)CC2)cc(OC)c1C` [Example 2-25, 4-methyl-3,5-bis(methyloxy)-N-{1-[(4-methyl-4H-thieno[3,2-b]pyrrol-5-yl)methyl]-4-piperidinyl]benzamide], the pIC50 was 7.80. As for `COc1cc(C(=O)NC2CCN(Cc3[nH]c4ccccc4c3C)CC2)cc(OC)c1C` [Example 2-18, 4-methyl-N-{1-[(3-methyl-1H-indol-2-yl)methyl]-4-piperidinyl}-3,5-bis(methyloxy)benzamide], the figure is 8.17. Consider `COc1cc(C(=O)NC2CCN(Cc3c(C)n(C)c4ccccc34)CC2)cc(OC)c1C` [Example 2-5, N-{1-[(1,2-dimethyl-1H-indol-3-yl)methyl]-4-piperidinyl}-4-methyl-3,5-bis(methyloxy)benzamide], for which the pIC50 is 7.59. As to `COc1cc(C(=O)NC2CCN(Cc3cn(C)c4ccccc34)CC2)cc(OC)c1C` [Example 2-2, 4-methyl-N-{1-[(1-methyl-1-H-indol-3-yl)methyl]-4-piperidinyl}-3,5-bis(methyloxy)benzamide], the pIC50 is 7.89.
